# Read-outs that look alike come from different tables or passages of the source.
# Legend:
# [1] = test system: rat skeletal muscle fibers; assay: Electrically evoked Ca2+ transients in skinned skeletal muscle fibers; assay type: cell-based; details: 10 μM FA or 1 mM tetracaine, 1 Hz
# Source text: Mechanically skinned fibers were isolated, mounted in a custom chamber, and bathed in a resting physiological solution containing rhod-2, as previously described ([21]). The Ca^2+-sensitive dye rhod-2 was used to track cytosolic Ca^2+ transients when exposed to electrical stimulation. Field pulses at 1 Hz frequency and 4 ms in duration were applied across platinum electrodes parallel to the long axis of the fiber. Imaging for electrical stimulation experiments was in xt mode, at a rate of 2 ms.line^−1. DMSO vehicle (0.01%), FA (10 μM), and tetracaine were added to the physiological solution. Each treatment was applied precisely at the seventh successive Ca^2+ transient.
# [2] = molecular target: T1, RyR1 (Sus scrofa, UniProt P16960); assay: [3H]ryanodine binding to skeletal SR (HSR) vesicles; assay type: biochemical, pig; details: for EC50: Table S4, read-out: EC50, [3H]ryanodine binding, skeletal HSR
# T1 construct: from tissue; host or cells: porcine longissimus dorsi muscle, heavy SR vesicles
# Procedure: Crude sarcoplasmic reticulum membrane vesicles were isolated from porcine longissimus dorsi muscle and porcine cardiac left ventricle tissue by differential centrifugation of homogenized tissue, as established previously ([65]). Skeletal heavy SR (HSR) vesicles, which are enriched with RyR1, were isolated by fractionation of crude skeletal SR vesicles using a discontinuous sucrose gradient, in accordance with our published work ([65]). All vesicles were flash-frozen and stored at −80 °C.
# In 96-well plates, skeletal SR membranes (HSR, 1 mg/ml) and cardiac SR membranes (CSR, 3 mg/ml) were preincubated with 1% DMSO or hit compound for 30 min at 22 °C in a solution containing 150 mM KCl, 5 mM GSH, 1 μg/ml Aprotinin/Leupeptin, 1 mM EGTA, and 65 μM or 1.02 mM CaCl2 (as determined by MaxChelator to yield 30 nM or 30 μM of free Ca^2+, respectively), 0.1 mg/ml of BSA, and 20 mM K-PIPES (pH 7.0). Nonspecific [^3H]ryanodine binding to SR was assessed by addition of 40 μM nonradioactively labeled ryanodine. Maximal [^3H]ryanodine binding was assessed by addition of 5 mM adenylyl-imidodiphosphate (AMP-PNP), and in the case of CSR, 20 mM caffeine was added. These control samples were each loaded over four wells per plate. Binding of [^3H]ryanodine (7.5 and 10 nM for CSR and HSR, respectively) was determined following a 3 h incubation at 37 °C and filtration through grade GF/B glass microfiber filters (Brandel Inc) using a Brandel Harvester. In 4 ml of Ecolite scintillation cocktail (MP biomedicals), [^3H]ryanodine retained on the filter was counted using a Beckman LS6000 scintillation counter.
# [3] = test system: intact mouse ventricular cardiomyocytes; assay: Ca2+ transients in intact ventricular cardiomyocytes paced at 1 Hz; assay type: cell-based
# Procedure: Mouse ventricular cardiomyocytes were isolated enzymatically from hearts of male C57BL/6J mouse (10–12 weeks old, Jackson Laboratory) as previously described with minor modifications ([66]). Briefly, mice were injected with heparin (500 U/kg body weight) and anesthetized with isoflurane (2 to 5%) to a verified deep surgical plane, whereupon the heart was excised, resulting in euthanasia by exsanguination. Hearts were excised and retrogradely perfused with constant flow on a Langendorff apparatus (37 °C) with Ca^2+-free normal Tyrode’s solution, gassed with 100% O2. Collagenase type II (Worthington Biochemical Co) and protease type XIV (Sigma-Aldrich) were used for enzymatic digestion. […]
# Ca^2+ activity was imaged via confocal microscopy (Bio-Rad, Radiance 2100, 40× objective) in the line scan mode (166 lines/s; ex 488 nm, em >505 nm). Ca^2+ sparks were recorded from ventricular cardiomyocytes permeabilized with saponin (50 μg/ml) for 1 min in internal solution containing (in mM) 10 HEPES, 1 EGTA, 1 free MgCl2 (with free [Ca^2+] adjusted to 50 nM using MaxChelator), 120 K-aspartate, 10 reduced glutathione, 5 ATP, 5 phosphocreatine di-Na, creatine phosphokinase 5 U/ml, and dextran (MW: 40,000) 8% at pH 7.20. […] Ca^2+ spark parameters were analyzed over a 10 s period from each line scan recording. […]
# T1 sequence (P16960 whole entry): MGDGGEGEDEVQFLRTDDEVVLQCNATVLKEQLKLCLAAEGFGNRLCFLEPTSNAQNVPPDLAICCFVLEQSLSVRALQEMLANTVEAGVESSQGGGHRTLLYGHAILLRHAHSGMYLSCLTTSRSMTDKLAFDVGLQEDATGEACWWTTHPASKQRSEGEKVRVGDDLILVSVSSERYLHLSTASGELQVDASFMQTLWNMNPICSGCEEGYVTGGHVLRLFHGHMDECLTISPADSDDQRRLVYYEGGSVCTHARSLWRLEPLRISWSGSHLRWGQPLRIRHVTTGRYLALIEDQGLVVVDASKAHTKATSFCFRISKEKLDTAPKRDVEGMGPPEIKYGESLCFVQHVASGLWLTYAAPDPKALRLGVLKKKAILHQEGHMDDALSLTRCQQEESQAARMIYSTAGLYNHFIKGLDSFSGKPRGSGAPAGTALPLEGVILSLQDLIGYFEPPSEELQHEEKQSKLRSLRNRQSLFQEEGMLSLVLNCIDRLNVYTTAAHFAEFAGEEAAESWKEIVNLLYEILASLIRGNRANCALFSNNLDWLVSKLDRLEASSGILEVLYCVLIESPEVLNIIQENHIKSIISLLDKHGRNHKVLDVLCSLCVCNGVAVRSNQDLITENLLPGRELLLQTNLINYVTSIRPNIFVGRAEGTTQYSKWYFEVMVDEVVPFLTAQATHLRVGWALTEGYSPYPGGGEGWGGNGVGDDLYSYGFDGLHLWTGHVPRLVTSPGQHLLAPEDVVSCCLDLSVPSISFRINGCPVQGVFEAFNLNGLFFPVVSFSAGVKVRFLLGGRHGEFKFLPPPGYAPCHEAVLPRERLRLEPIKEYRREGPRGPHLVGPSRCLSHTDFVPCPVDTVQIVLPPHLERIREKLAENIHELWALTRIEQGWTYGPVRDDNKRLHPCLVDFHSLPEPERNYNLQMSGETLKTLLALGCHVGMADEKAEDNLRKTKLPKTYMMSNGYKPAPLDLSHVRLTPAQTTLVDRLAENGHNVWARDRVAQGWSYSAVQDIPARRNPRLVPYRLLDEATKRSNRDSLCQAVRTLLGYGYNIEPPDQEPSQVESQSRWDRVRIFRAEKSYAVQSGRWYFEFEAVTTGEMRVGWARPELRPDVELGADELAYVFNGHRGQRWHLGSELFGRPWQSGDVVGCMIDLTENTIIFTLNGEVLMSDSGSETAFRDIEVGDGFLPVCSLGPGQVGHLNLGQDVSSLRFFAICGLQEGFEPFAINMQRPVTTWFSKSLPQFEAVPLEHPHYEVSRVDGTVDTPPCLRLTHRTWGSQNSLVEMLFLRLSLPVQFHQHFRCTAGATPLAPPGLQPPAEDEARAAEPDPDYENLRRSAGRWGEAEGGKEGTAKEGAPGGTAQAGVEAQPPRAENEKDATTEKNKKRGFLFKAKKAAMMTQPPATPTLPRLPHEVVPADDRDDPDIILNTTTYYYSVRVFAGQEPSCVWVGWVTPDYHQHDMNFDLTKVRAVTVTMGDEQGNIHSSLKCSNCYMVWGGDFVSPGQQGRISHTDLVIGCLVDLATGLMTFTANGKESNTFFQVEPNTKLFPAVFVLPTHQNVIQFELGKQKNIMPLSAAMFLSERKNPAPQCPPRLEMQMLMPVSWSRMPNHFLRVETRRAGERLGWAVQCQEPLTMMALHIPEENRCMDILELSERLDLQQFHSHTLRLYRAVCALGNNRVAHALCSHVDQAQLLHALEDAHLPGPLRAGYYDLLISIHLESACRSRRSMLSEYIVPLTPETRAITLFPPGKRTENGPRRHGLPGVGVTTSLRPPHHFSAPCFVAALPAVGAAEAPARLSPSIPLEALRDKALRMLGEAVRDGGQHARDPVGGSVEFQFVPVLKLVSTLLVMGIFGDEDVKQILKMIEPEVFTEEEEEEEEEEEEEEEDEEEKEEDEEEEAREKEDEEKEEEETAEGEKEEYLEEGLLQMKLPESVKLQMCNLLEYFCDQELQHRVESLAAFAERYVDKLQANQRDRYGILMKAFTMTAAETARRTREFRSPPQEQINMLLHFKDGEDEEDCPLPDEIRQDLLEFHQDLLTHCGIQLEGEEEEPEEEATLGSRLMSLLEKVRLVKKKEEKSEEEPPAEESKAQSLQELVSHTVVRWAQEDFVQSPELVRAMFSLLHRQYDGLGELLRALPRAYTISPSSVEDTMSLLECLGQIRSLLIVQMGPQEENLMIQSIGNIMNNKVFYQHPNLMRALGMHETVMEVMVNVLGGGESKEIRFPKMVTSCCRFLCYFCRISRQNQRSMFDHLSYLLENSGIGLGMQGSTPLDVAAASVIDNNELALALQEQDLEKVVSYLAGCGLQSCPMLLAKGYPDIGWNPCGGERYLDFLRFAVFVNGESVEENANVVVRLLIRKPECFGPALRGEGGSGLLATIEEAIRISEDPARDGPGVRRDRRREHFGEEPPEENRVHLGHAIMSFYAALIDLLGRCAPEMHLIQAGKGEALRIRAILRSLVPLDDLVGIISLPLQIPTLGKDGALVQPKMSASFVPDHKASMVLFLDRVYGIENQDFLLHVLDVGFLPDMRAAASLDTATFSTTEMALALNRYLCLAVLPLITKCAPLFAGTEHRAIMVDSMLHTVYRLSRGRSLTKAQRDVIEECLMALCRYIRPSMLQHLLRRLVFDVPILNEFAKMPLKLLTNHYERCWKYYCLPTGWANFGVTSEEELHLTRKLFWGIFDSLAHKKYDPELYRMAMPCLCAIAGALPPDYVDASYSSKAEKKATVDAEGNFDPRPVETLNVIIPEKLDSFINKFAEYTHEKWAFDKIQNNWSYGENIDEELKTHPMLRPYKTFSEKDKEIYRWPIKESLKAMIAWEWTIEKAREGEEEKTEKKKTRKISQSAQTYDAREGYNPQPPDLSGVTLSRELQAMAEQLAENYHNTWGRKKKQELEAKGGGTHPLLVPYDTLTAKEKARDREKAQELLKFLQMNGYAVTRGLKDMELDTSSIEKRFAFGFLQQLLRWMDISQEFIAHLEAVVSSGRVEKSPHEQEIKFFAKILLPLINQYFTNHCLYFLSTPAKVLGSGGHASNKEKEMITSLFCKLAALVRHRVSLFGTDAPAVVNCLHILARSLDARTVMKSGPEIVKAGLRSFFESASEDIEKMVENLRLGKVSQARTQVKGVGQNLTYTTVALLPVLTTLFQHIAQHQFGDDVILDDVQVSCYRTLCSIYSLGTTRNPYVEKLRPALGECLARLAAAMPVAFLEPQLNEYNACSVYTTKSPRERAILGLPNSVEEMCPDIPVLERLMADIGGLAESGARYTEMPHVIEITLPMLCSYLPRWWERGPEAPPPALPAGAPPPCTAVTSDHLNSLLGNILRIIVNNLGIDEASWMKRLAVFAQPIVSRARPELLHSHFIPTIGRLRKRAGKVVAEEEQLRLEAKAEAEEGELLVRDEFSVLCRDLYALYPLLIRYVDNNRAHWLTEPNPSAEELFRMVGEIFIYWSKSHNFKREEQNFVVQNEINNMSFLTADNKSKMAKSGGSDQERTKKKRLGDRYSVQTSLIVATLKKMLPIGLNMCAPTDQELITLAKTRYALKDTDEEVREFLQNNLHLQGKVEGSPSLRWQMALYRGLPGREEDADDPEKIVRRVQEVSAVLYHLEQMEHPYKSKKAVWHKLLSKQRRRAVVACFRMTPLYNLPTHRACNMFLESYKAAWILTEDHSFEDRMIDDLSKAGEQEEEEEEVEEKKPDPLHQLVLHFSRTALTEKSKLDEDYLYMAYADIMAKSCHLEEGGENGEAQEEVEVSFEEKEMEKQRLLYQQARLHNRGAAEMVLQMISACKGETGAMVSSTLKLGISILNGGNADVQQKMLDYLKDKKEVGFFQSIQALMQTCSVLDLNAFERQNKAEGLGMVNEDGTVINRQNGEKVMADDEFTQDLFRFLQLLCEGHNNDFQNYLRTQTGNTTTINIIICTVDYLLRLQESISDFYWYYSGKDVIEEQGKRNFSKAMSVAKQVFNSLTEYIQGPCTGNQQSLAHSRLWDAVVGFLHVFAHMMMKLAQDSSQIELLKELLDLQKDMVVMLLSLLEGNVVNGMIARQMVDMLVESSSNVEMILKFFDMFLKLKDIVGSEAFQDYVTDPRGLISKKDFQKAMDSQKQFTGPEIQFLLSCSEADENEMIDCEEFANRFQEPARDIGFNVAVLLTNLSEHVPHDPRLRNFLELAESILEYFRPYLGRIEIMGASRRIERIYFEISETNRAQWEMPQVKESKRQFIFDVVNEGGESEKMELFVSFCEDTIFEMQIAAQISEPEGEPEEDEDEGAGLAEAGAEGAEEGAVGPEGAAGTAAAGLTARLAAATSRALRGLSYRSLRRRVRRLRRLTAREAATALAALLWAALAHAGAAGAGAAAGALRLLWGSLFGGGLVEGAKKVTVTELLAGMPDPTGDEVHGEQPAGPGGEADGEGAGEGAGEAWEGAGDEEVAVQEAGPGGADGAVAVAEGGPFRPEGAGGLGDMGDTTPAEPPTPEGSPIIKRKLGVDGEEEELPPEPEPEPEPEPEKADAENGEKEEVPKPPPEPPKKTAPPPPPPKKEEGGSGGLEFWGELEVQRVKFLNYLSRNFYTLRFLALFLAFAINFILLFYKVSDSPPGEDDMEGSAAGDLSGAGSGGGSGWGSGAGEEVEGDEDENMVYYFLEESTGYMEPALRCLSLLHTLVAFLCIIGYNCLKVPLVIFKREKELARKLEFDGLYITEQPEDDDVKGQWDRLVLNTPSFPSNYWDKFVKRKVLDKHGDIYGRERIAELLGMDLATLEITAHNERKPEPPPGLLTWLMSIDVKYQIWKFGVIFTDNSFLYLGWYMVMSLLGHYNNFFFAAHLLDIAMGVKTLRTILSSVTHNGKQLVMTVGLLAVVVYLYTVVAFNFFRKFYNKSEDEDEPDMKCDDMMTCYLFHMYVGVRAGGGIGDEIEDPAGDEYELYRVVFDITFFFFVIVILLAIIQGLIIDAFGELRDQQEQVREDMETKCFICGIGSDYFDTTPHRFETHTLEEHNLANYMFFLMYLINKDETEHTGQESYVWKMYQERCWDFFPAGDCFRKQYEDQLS
structure (smiles),measurement,setting,value
"CC(=O)O[C@H]1C[C@@]2(C)[C@@H](C[C@@H](O)[C@H]3[C@@]4(C)CC[C@@H](O)[C@@H](C)[C@@H]4CC[C@@]32C)/C1=C(\CCC=C(C)C)C(=O)O [FA, (2Z)-2-[(3R,4S,5S,8S,9S,10S,11R,13R,14S,16S)-16-acetyloxy-3,11-dihydroxy-4,8,10,14-tetramethyl-2,3,4,5,6,7,9,11,12,13,15,16-dodecahydro-1H-cyclopenta[a]phenanthren-17-ylidene]-6-methylhept-5-enoic acid]",electrically induced Ca2+ transient amplitude,[1],did not have an effect
same,EC50,[2]; [Ca2+] 30 nM,0.01 µM
same,EC50,"[2]; [Ca2+], 30 µM",21.1 µM
same,maximum inhibitory effect on [3H]ryanodine binding,"[2]; skeletal SR, 30 nM Ca2+",~50%
same,effect on [3H]ryanodine binding to RyR1,"[2]; skeletal SR, 30 μM Ca2+",strongly increased
same,cardiomyocytes with arrhythmogenic Ca2+ events (total paired measures),"[3]; FA across all concentrations tested (0.01–10 μM), 6 min",10 of 12
same,Ca2+ transient amplitudes,"[3]; even at very low [FA] (0.01 μM), pacing 1 Hz",some diminution
